Among the data in PubChem BioAssay AID2043 (NMMLSC, 2009) are EC50 and Ki values, retold here.

As a reminder, the Ki is the equilibrium dissociation constant of an inhibitor or competing ligand from its target.

Each structure is given as a SMILES string. The source made the active and inactive calls. The rule behind the calls is not given here.

The target of the first test is GTPase HRas, activated mutant (human). Nature of the test: activated mutant Ras nucleotide binding blockade – biochemical, additional analogs, multiplex flow cytometry, Ki, SAR follow-up (AID 2043). Particulars: bead-based flow cytometry multiplex, fluorescent GTP binding.
Regarding `CC(C(=O)O)c1cccc(C(=O)c2ccccc2)c1` (stereo unspecified), the EC50 result was “inactive”.

As to `O=C(C#Cc1ccccc1)c1ccc(F)cc1`, the EC50 entry is “inactive”.

For `O=C(C#Cc1ccccc1)c1ccccc1[N+](=O)[O-]`, the EC50 entry was “inactive”.

The same test, now with this note: bead-based flow cytometry multiplex, fluorescent GTP binding; measured here: Ki derived from EC50.
The molecule `CC(C(=O)O)c1cccc(C(=O)c2ccccc2)c1` (stereo unspecified) had a Ki of 30 nM.

Turning to `O=C(C#Cc1ccccc1)c1ccc(F)cc1`, the Ki is 1340 nM.

In turn, `O=C(C#Cc1ccccc1)c1ccccc1[N+](=O)[O-]` showed a Ki of 560 nM.
